Test results as given in paper PMC6273978, “Synthesis and Pharmacological Evaluation of Novel Pleuromutilin Derivatives with Substituted Benzimidazole Moieties” (Molecules, 2016).

How the values were obtained:
Test in all cases: Cytochrome P450 inhibition cocktail assay, human liver microsomes
Format in all cases: in vitro ADME
CYP1A2 = biological target: T1, CYP1A2 (Homo sapiens, UniProt P05177); conditions: probe phenacetin, metabolite acetaminophen
T1 construct: Twenty microliters of human liver microsomes (final concentration of 0.3 mg/mL); from tissue; host or cells: human liver microsomes
T1 sequence (P05177 1-516): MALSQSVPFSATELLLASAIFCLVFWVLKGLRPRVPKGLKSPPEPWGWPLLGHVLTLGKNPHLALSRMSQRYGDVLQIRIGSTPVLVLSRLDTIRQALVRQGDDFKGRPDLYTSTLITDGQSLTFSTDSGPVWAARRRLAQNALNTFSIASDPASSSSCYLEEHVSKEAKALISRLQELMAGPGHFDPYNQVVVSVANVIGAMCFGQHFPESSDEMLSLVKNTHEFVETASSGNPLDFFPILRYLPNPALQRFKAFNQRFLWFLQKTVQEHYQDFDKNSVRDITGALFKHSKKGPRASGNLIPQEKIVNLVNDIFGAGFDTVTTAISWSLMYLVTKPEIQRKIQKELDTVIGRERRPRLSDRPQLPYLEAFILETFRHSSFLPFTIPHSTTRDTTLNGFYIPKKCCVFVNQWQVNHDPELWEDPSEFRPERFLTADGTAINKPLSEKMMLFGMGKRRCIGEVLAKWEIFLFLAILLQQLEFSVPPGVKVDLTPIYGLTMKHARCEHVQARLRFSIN
Description: (§1) The cytochrome P450 (CYP) proteins form a large family of heme proteins that catalyze many reactions involved xenobiotic metabolism and biosynthesis of cholesterol, steroids, and other lipid components. Some chemicals could affect the disposition of conventional pharmaceuticals through the inhibition of CYP450 enzymes. […] The selective probe substrate concentrations were prepared near to its respective Km value, and the compound 3 concentration range is from […].
(§2) Compound 3 was screened for its ability to inhibit cytochrome P450 using a cocktail assay described previously. Briefly, 50 μL of compound 3 was added to 96-well plates, with final concentrations of 0.05, 0.1, 0.5, 1, 10, 50, and 100 μM, respectively. Twenty microliters of human liver microsomes (final concentration of 0.3 mg/mL) and 20 μL of probe substrates (Table 3) in 0.1 M Tris were added. After preincubation at 37 °C for 10 min, 10 μL of NADPH was added (final concentration of 1 mM), and the reaction started to incubate at the same temperature for 15 min. The reactions were then quenched by the addition of 100 μL of acetonitrile with a mixture of propranolol and nadolol (50 nM) used as an internal standard. After reactions were finished, the plates were centrifuged and the supernatants were analyzed for the five metabolites (Table 3) by LC/MS/MS.

CYP2D6 = biological target: T2, CYP2D6 (Homo sapiens, UniProt P10635); conditions: probe dextromethorphan, metabolite dextrophan
T2 construct: Twenty microliters of human liver microsomes (final concentration of 0.3 mg/mL); from tissue; host or cells: human liver microsomes
T2 sequence (P10635 whole entry): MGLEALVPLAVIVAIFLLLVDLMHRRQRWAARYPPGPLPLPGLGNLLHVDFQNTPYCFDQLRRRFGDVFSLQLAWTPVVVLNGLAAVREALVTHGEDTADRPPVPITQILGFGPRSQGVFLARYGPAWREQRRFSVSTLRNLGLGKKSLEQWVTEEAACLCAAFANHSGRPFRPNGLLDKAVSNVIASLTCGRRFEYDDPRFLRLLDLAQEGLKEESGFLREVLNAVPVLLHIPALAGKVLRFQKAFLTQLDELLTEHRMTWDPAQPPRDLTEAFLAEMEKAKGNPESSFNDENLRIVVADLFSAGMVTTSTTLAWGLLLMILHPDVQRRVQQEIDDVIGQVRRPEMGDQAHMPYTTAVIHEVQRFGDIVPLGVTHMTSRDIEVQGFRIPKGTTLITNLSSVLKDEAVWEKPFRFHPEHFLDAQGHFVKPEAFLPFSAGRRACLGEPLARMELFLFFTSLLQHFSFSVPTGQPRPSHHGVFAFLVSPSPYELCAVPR
Description: as §1, §2

CYP3A4 = biological target: T3, CYP3A4 (Homo sapiens, UniProt P08684); conditions: probe midazolam, metabolite 1-OH-midazolam
T3 construct: Twenty microliters of human liver microsomes (final concentration of 0.3 mg/mL); from tissue; host or cells: human liver microsomes
T3 sequence (P08684 whole entry): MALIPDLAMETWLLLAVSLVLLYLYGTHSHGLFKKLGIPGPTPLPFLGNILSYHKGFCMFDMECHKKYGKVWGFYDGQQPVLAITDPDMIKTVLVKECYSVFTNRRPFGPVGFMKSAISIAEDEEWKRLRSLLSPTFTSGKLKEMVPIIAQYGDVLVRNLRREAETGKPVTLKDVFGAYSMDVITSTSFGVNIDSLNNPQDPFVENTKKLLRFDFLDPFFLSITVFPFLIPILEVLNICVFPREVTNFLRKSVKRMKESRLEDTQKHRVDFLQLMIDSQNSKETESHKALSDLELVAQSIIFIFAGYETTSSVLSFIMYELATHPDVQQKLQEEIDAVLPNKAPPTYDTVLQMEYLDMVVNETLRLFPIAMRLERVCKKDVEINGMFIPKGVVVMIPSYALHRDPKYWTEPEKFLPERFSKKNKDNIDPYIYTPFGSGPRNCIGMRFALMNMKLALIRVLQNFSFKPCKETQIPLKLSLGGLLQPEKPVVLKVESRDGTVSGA
Description: as §1, §2

CYP2C19 = biological target: T4, CYP2C19 (Homo sapiens, UniProt P33261); conditions: probe mephenytoin, metabolite 4-OH-S-mephenytoin
T4 construct: Twenty microliters of human liver microsomes (final concentration of 0.3 mg/mL); from tissue; host or cells: human liver microsomes
T4 sequence (P33261 whole entry): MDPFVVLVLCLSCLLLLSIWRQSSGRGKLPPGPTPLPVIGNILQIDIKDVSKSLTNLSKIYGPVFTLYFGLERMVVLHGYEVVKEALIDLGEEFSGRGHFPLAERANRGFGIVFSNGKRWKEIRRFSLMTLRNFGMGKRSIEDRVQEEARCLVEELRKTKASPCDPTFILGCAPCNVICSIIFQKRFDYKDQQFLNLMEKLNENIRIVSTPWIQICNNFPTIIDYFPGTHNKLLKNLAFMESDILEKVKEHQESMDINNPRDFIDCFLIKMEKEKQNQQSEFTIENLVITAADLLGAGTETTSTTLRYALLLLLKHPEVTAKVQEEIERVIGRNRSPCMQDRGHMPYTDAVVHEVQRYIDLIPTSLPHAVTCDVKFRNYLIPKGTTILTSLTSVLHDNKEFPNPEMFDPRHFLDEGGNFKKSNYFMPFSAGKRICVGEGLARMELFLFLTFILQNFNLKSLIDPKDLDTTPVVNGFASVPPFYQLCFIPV
Description: as §1, §2

CYP2C9 = biological target: T5, CYP2C9 (Homo sapiens, UniProt P11712); conditions: probe diclofenac, metabolite 4-OH-diclofenac
T5 construct: Twenty microliters of human liver microsomes (final concentration of 0.3 mg/mL); from tissue; host or cells: human liver microsomes
T5 sequence (P11712 whole entry): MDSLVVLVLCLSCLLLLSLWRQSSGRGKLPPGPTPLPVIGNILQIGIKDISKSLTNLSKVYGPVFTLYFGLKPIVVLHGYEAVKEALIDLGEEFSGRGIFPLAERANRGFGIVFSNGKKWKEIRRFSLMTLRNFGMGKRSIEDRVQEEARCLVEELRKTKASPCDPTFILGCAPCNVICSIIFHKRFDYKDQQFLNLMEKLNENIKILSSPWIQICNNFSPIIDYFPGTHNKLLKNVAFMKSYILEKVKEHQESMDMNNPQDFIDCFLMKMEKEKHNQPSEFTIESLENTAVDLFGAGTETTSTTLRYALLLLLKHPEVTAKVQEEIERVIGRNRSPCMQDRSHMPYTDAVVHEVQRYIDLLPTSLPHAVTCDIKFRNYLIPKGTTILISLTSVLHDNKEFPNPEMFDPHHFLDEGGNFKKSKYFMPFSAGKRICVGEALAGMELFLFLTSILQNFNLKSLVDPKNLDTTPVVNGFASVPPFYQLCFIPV
Description: as §1, §2

`C=C[C@]1(C)C[C@@H](OC(=O)CSc2nc3ccc(N)cc3[nH]2)[C@]2(C)[C@H](C)CC[C@]3(CCC(=O)[C@H]32)[C@@H](C)[C@@H]1O` [Compound 3, 14-O-((5-Amino-benzimidazole-2-yl)thioacetyl) Mutilin] was tested, and the IC50 (CYP1A2) was > 50 µM, the IC50 (CYP2D6) was > 100 µM and the IC50 (CYP3A4) was 1.69 µM. For the same compound, the IC50 (CYP2C19) was > 50 µM and the IC50 (CYP2C9) was 10.7 µM.
